Key:
[1] = Distribution coefficient, logD of the compound at pH 7.4 by chromatography; format: physicochemical
[2] = Intrinsic clearance in dog hepatocytes at 0.5 uM incubated for 120 mins by LC-MS/MS analysis; format: ADME, cell-based, Canis lupus familiaris, Hepatocyte; settings: 2 h
[3] = Blood clearance in male Wistar Han rat at 1 mg/kg, iv measured up to 7 hrs by LC-MS/MS analysis; format: ADME, organism-based; settings: whole blood
[4] = Volume of distribution at steady state in male Wistar Han rat at 1 mg/kg, iv measured up to 7 hrs by LC-MS/MS analysis; format: ADME, organism-based; settings: in vivo, read-out: Vdss
[5] = Half life in male Wistar Han rat at 1 mg/kg, iv measured up to 7 hrs by LC-MS/MS analysis; format: ADME, organism-based; settings: in vivo
[6] = Oral bioavailability in male Wistar Han rat at 3 mg/kg measured up to 7 hrs by LC-MS/MS analysis; format: ADME, organism-based; settings: in vivo
[7] = Intrinsic clearance in rat hepatocytes at 0.5 uM incubated for 60 mins by LC-MS/MS analysis; format: ADME, cell-based, Hepatocyte; settings: 1 h
[8] = Intrinsic clearance in human hepatocytes at 0.5 uM incubated for 120 mins by LC-MS/MS analysis; format: ADME, cell-based, Hepatocyte; settings: 2 h
[9] = Intrinsic clearance in Wistar Han rat liver microsomes at 0.5 uM pre-incubated up to 45 mins before NADPH addition by LC-MS/MS analysis; format: ADME, Microsome
[10] = Intrinsic clearance in human liver microsomes at 0.5 uM pre-incubated up to 45 mins before NADPH addition by LC-MS/MS analysis; format: ADME, Microsome
[11] = Half life in male Wistar Han rat at […], iv measured up to 7 hrs by LC-MS/MS analysis; settings: in vivo
[12] = Blood clearance in male Wistar Han rat at […], iv measured up to 7 hrs by LC-MS/MS analysis; settings: whole blood
[13] = Volume of distribution at steady state in male Wistar Han rat at […], iv measured up to 7 hrs by LC-MS/MS analysis; settings: in vivo, read-out: Vdss
[14] = Dose normalized AUC in male Wistar Han rat at 3 mg/kg, po measured up to 7 hrs by LC-MS/MS analysis; format: ADME, organism-based; settings: in vivo
[15] = Blood clearance in beagle dog at 10.5 mg/kg, iv measured up to 7 hrs by LC-MS/MS analysis; format: ADME, organism-based, Canis lupus familiaris; settings: whole blood
[16] = Volume of distribution at steady state in beagle dog at 10.5 mg/kg, iv measured up to 7 hrs by LC-MS/MS analysis; format: ADME, organism-based, Canis lupus familiaris; settings: in vivo, read-out: Vdss
[17] = Half life in beagle dog at 10.5 mg/kg, iv measured up to 7 hrs by LC-MS/MS analysis; format: ADME, organism-based, Canis lupus familiaris; settings: in vivo
[18] = Oral bioavailability in beagle dog at 10.5 mg/kg, iv measured up to 7 hrs by LC-MS/MS analysis; format: ADME, organism-based, Canis lupus familiaris; settings: in vivo

In the case of `CCNC(=O)c1cc(C(=O)NC)c(=O)n(Cc2ccccc2)c1`, the chromatographic logD [1] was 3, the CLH [2] was < 1.26 mL/min/g and the clearance [3] was 12 mL/min/kg. The Vd [4] was 0.8 L/kg, the half-life [5] was 36 min and the bioavailability [6] was 104%. The CLH [7] was < 0.8 mL/min/g and the CLH [8] was < 0.87 mL/min/g.

Molecule `CNC(=O)c1cccn(Cc2ccccc2)c1=O` has a chromatographic logD [1] of 3.

`CNC(=O)c1cc(C(=O)NC2CC2)cn(Cc2ccccc2F)c1=O` gave a chromatographic logD [1] of 3.

`CNC(=O)c1cc(C(=O)NC2CC2)cn(Cc2cccc3cc[nH]c23)c1=O` gave a chromatographic logD [1] of 3.7.

In the case of `CNC(=O)c1cc(C(=O)NCCC2CCCNC2)cn(Cc2ccccc2)c1=O` (stereo not drawn), the chromatographic logD [1] was 1.6.

Work on `CNC(=O)c1cc(C(=O)NC2CC2)cn(Cc2cccc(C)c2)c1=O` yielded a chromatographic logD [1] of 3.6.

In the case of `CNC(=O)c1cc(C(=O)NCCC(C)C)cn(Cc2ccccc2)c1=O`, the chromatographic logD [1] was 4.8.

`CNC(=O)c1cc(C(N)=O)cn(Cc2ccccc2)c1=O` gave a chromatographic logD [1] of 2.

`CNC(=O)c1cc(C(=O)NC2CCC2)cn(Cc2cccc(NC)c2)c1=O` gave a chromatographic logD [1] of 3.6.

With `CNC(=O)c1cc(C(=O)NC2CC2)cn(Cc2ccc3nc[nH]c3c2)c1=O` the chromatographic logD [1] was 1.2.

Molecule `CNC(=O)c1cc(C(=O)NC2CC2)cn(CC2CCCCC2)c1=O` has a chromatographic logD [1] of 4.

Molecule `CNC(=O)c1cc(C(=O)NC2CC2)cn(Cc2cccc(OC)c2)c1=O` has a chromatographic logD [1] of 3.

In the case of `CNC(=O)c1ccc(=O)n(Cc2cc(Br)ccc2F)c1`, the chromatographic logD [1] was 2.6, the CLH [9] was 0.76 mL/min/g and the CLH [10] was 0.53 mL/min/g.

For `CNC(=O)c1cc(C(=O)NC2CC2)cn(Cc2ccc(F)cc2)c1=O`, the chromatographic logD [1] was 3.2.

Work on `CNC(=O)c1cc(C(=O)NC2CC2)cn(Cc2cccc(CCN3CCOCC3)c2)c1=O` yielded a chromatographic logD [1] of 2.3.

With `CNC(=O)c1cc(C(=O)NC2CC2)cn(Cc2cccc(C#N)c2)c1=O` the chromatographic logD [1] was 2.6.

With `CNC(=O)c1cc(C(=O)NC2CC2)cn(Cc2cccc3c2CCN3)c1=O` the chromatographic logD [1] was 2.1, the CLH [2] was < 1.26 mL/min/g and the clearance [3] was 16 mL/min/kg. It also gave a Vd [4] of 0.9 L/kg, a half-life [5] of 36 min and a bioavailability [6] of 53%. For the same molecule, the CLH [7] was < 0.8 mL/min/g and the CLH [8] was < 0.45 mL/min/g.

In the case of `CNC(=O)c1cc(C(=O)NC2CCC2)cn(Cc2cccnc2)c1=O`, the chromatographic logD [1] was 1.8.

In the case of `CNC(=O)c1cc(C(=O)NC2CC2)cn(Cc2cccc3[nH]c(C)nc23)c1=O`, the chromatographic logD [1] was 1.5.

In the case of `CNC(=O)c1cc(C(=O)NCCO)cn(Cc2ccccc2)c1=O`, the chromatographic logD [1] was 1.9.

`CNC(=O)c1cc(C(=O)NC2CCC2)cn(Cc2ccccc2)c1=O` gave a chromatographic logD [1] of 3.8.

Molecule `CNC(=O)c1cc(C(=O)NC2CC2)cn(Cc2ccc(C)cc2)c1=O` has a chromatographic logD [1] of 3.5.

Molecule `CNC(=O)c1ccc(=O)n(Cc2ccccc2)c1` has a chromatographic logD [1] of 1.6.

Work on `CCNC(=O)c1cccn(Cc2ccccc2)c1=O` yielded a chromatographic logD [1] of 3.7.

Molecule `CNC(=O)c1cc(C(=O)NC2CC2)cn(Cc2ccc(OC)cc2)c1=O` has a chromatographic logD [1] of 3.

For `CNC(=O)c1cc(C(=O)NC2CC2)cn(Cc2cccc([C@@H](C)O)c2)c1=O`, the chromatographic logD [1] was 2.2, the CLH [2] was < 1.26 mL/min/g and the clearance [3] was 74 mL/min/kg. It also gave a Vd [4] of 1.7 L/kg, a half-life [5] of 24 min and a CLH [7] of 3 mL/min/g. The CLH [8] was < 0.45 mL/min/g.

Work on `CNC(=O)c1cc(C(=O)NC2CCOCC2)cn(Cc2ccccc2)c1=O` yielded a chromatographic logD [1] of 2.8.

Work on `CNC(=O)c1cc(C(=O)NC2CC2)cn(Cc2cccc3occc23)c1=O` yielded a chromatographic logD [1] of 3.4.

Work on `CNC(=O)c1cc(C(=O)NC2CC2)cn(Cc2nccc3[nH]ccc23)c1=O` yielded a chromatographic logD [1] of 1.7.

With `CNC(=O)c1cc(C(=O)NCCC2CCOCC2)cn(Cc2ccccc2)c1=O` the chromatographic logD [1] was 3.6.

In the case of `CNC(=O)c1cc(C(=O)NCCOC)cn(Cc2ccccc2)c1=O`, the chromatographic logD [1] was 2.7.

Molecule `CNC(=O)c1cc(C(=O)NC)c(=O)n(Cc2ccccc2)c1` has a chromatographic logD [1] of 2.4.

With `CNC(=O)c1cc(C(=O)NC2CC2)cn([C@H](C)c2ccccc2)c1=O` the chromatographic logD [1] was 3.5, the CLH [7] was 1.5 mL/min/g and the CLH [8] was < 0.87 mL/min/g. For the same molecule, the half-life at 7 h [11] was 24 min, the clearance at 7 h [12] was 72 mL/min/kg and the Vd at 7 h [13] was 1.6 L/kg.

For `CNC(=O)c1cc(C(=O)NC2CC2)cn(CC2CCOCC2)c1=O`, the chromatographic logD [1] was 1.5.

`CNC(=O)c1cc(C(=O)NC2CCC2)cn(Cc2ccncc2)c1=O` showed a chromatographic logD [1] of 1.7.

Molecule `CNC(=O)c1cc(C(=O)NC2CC2)cn(Cc2cccc3[nH]ncc23)c1=O` has a chromatographic logD [1] of 1.5, a clearance [3] of 42 mL/min/kg and a Vd [4] of 1.2 L/kg. The half-life [5] was 24 min, the bioavailability [6] was 14% and the CLH [7] was < 0.8 mL/min/g. For the same molecule, the CLH [8] was < 0.45 mL/min/g.

Molecule `CNC(=O)c1cc(C(=O)NC(C)C)cn(Cc2ccccc2)c1=O` has a chromatographic logD [1] of 3.6.

For `CNC(=O)c1cc(C(=O)NC2CC2)cn(Cc2cccc(F)c2)c1=O`, the chromatographic logD [1] was 3.2.

Molecule `CNC(=O)c1cc(C(=O)NC2CC2)c(C)n(Cc2ccccc2)c1=O` has a chromatographic logD [1] of 2.9.

For `CNC(=O)c1cc(C(=O)NC2CC2)cn(Cc2cccc3[nH]ccc23)c1=O`, the chromatographic logD [1] was 2.9, the CLH [2] was < 1.26 mL/min/g and the clearance [3] was 23 mL/min/kg. The Vd [4] was 1.3 L/kg, the half-life [5] was 48 min and the AUC/dose [14] was 23.6 kg·min/L. For the same molecule, the CLH [7] was 1.66 to 1.7 mL/min/g and the CLH [8] was < 0.45 mL/min/g.

Molecule `CNC(=O)c1cc(C(=O)NC2CCC2)cn(Cc2ccccn2)c1=O` has a chromatographic logD [1] of 2.2.

In the case of `CNC(=O)c1cc(C(=O)NCC(C)C)cn(Cc2ccccc2)c1=O`, the chromatographic logD [1] was 4.3.

`CNC(=O)c1cc(C(=O)NC2CC2)cn(Cc2cccc3cn[nH]c23)c1=O` gave a chromatographic logD [1] of 2.2.

For `CNC(=O)c1cc(C(=O)NCCCC2CNCCO2)cn(Cc2ccccc2)c1=O` (racemic), the chromatographic logD [1] was 1.4.

Work on `CNC(=O)c1cc(C(=O)NC2CC2)cn(CC2CCCOC2)c1=O` (racemic) yielded a chromatographic logD [1] of 2.

Work on `CNC(=O)c1cc(C(=O)NC2CC2)cn(CC2CCCCO2)c1=O` (racemic) yielded a chromatographic logD [1] of 2.6.

For `CNC(=O)c1cc(C(=O)NC2CC2)cn(Cc2ccccc2)c1=O` [GSK620], the chromatographic logD [1] was 3.1, the CLH [2] was < 1.26 mL/min/g and the clearance [3] was 12 mL/min/kg. For the same molecule, the Vd [4] was 0.8 L/kg, the half-life [5] was 66 min and the bioavailability [6] was 67%. It also gave a clearance [15] of 2 mL/min/kg, a Vd [16] of 1 L/kg and a half-life [17] of 342 min. For the same molecule, the bioavailability [18] was 57%, the CLH [7] was 0.95 mL/min/g and the CLH [8] was < 0.45 mL/min/g.

Source: ChEMBL document CHEMBL4622971, “The Optimization of a Novel, Weak Bromo and Extra Terminal Domain (BET) Bromodomain Fragment Ligand to a Potent and Selective Second Bromodomain (BD2) Inhibitor” (J Med Chem, 2020)
